Measured values taken from PubChem BioAssay (NCI).
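Exposure lasted 48 hours, with cells grown in 96-well plates and compounds tested at five concentrations. The concentration for 50% growth inhibition is given as GI50. TGI: total growth inhibition.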

What was measured:
Experiment in all cases: NCI tumour cell line growth inhibition, 48 h
[1] = tested on: SNB-75 CNS
[2] = tested on: SN12C renal
[3] = tested on: SR leukemia
[4] = tested on: SF-539 CNS
[5] = tested on: A498 renal
[6] = tested on: PC-3 prostate
[7] = tested on: OVCAR-5 ovarian
[8] = tested on: COLO 205 colon
[9] = tested on: CAKI-1 renal
[10] = tested on: MCF7 breast

Row | Structure (SMILES) | GI50 [1] [nM] | TGI [1] [µM] | GI50 [2] [nM] | TGI [2] [µM] | GI50 [3] [nM] | TGI [3] [µM] | GI50 [4] [nM] | TGI [4] [nM] | GI50 [5] [nM] | TGI [5] [nM] | GI50 [6] [nM] | TGI [6] [nM] | GI50 [7] [nM] | TGI [7] [µM] | GI50 [8] [nM] | TGI [8] [nM] | GI50 [9] [nM] | TGI [9] [µM] | GI50 [10] [nM] | TGI [10] [µM]
1 | COc1ccc(C(=O)OC2C(OC3C(O)COC(O[C@H]4C[C@H]5[C@@H]6CC=C7C[C@@H](O)CC[C@]7(C)[C@H]6CC[C@]5(C)[C@H]4[C@H](C)C(=O)CCC(C)C)C3OC(=O)C(C)C)OCC(O)C2O)cc1 (stereo not given in full) | 6.98 | 4.9 | 3020 | 6.53 | 12.1 | 3.34 | < 2.75 | 28.9 | 3.95 | 16.1 | 8.21 | 446 | 204 | 5.22 | 57.5 | 325 | 17.2 | 1.64 | 13.6 | 2.99
2 | C=C(c1ccc(OC)c(/C=C/C(=O)c2cc(OC)c(OC)c(OC)c2)c1)c1cc(OC)c(OC)c(OC)c1 | 892 | 7.08 | 1870 | 9.55 | 460 | 8.79 | 1410 | 3050 | 1480 | 3110 | 1300 | 5310 | 2070 | 6.14 | 2030 | 4980 | 1280 | 10.5 | 440 | 4.03
